ChEMBL document CHEMBL3272199, “Beta-lactam antibiotics with N-oxide side chains. 1. Quinoxaline N-oxides” (1976)
≈ marks a conversion by molar mass, not a printed value. Calls of active or inactive are those of the source. No cut-off for these calls is given here.

Legend:
Salmonella [1] = experiment: Antibacterial activity against Salmonella schottmuelleri assessed as growth inhibition incubated for 24 hrs using acid chloride; assay type: functional
Staphylococcus aureus [2] = experiment: Antibacterial activity against Staphylococcus aureus assessed as growth inhibition incubated for 24 hrs using mixed anhydride; assay type: functional
Staphylococcus aureus [3] = experiment: Antibacterial activity against Staphylococcus aureus assessed as growth inhibition incubated for 24 hrs using acid chloride; assay type: functional
Salmonella [4] = experiment: Antibacterial activity against Salmonella schottmuelleri assessed as growth inhibition incubated for 24 hrs using mixed anhydride; assay type: functional
Proteus mirabilis = experiment: Antimicrobial activity against Proteus mirabilis infected in mouse assessed as growth inhibition at 250 mg/kg; assay type: functional, organism-based; set-up: dose 250 mg/kg
Pseudomonas aeruginosa = experiment: Antimicrobial activity against Pseudomonas aeruginosa infected in mouse assessed as growth inhibition at 250 mg/kg; assay type: functional, organism-based; set-up: dose 250 mg/kg
Staphylococcus aureus [5] = experiment: Antibacterial activity against Staphylococcus aureus assessed as zone of inhibition at 100 ug/ml incubated for 24 hrs; assay type: functional, organism-based

| Structure (SMILES) | MIC (Salmonella [1]) [µg/mL] | MIC (Staphylococcus aureus [2]) [µg/mL] | MIC (Staphylococcus aureus [3]) [µg/mL] | MIC (Salmonella [4]) [µg/mL] | Activity (Proteus mirabilis) | Activity (Pseudomonas aeruginosa) | inhibition zone (IZ) (Staphylococcus aureus [5]) |
| --- | --- | --- | --- | --- | --- | --- | --- |
| CC1(C)S[C@@H]2[C@H](NC(=O)Cc3ccccc3)C(=O)N2[C@H]1C(=O)O [PENICILLIN G] | 10 (≈ 29.9 µM) | 10 (≈ 29.9 µM) | 10 (≈ 29.9 µM) | 10 (≈ 29.9 µM) |  |  |  |
| CC1(C)S[C@@H]2[C@H](NC(=O)c3c(-c4ccccc4)[n+]([O-])c4ccccc4[n+]3[O-])C(=O)N2[C@H]1C(=O)[O-].[Na+] | 1000 |  | 100 |  | inactive | inactive | Active |
| Cc1c(C)[n+]([O-])c2cc(C(=O)N[C@@H]3C(=O)N4[C@@H]3SC(C)(C)[C@@H]4C(=O)[O-])ccc2[n+]1[O-].[Na+] |  | 100 |  | > 1000 | inactive | inactive |  |
| Cc1c(CC(=O)N[C@@H]2C(=O)N3C(C(=O)O)=C(C[O-])CS[C@H]23)[n+]([O-])c2ccccc2[n+]1[O-].[Na+] |  | 1000 |  | > 1000 | inactive | inactive | Active |

More lines, main results first:

| MIC (Salmonella [1]) [µg/mL] | MIC (Staphylococcus aureus [2]) [µg/mL] | MIC (Staphylococcus aureus [3]) [µg/mL] | MIC (Salmonella [4]) [µg/mL] | Structure (SMILES) | Activity (Proteus mirabilis) | Activity (Pseudomonas aeruginosa) | inhibition zone (IZ) (Staphylococcus aureus [5]) |
| --- | --- | --- | --- | --- | --- | --- | --- |
|  | 100 |  | 1000 | Cc1c(CC(=O)N[C@@H]2C(=O)N3[C@@H]2SC(C)(C)[C@@H]3C(=O)[O-])[n+]([O-])c2ccccc2[n+]1[O-].[Na+] | inactive | inactive |  |
| 1000 |  | 100 |  | CCOC(=O)c1c(C(=O)N[C@@H]2C(=O)N3[C@@H]2SC(C)(C)[C@@H]3C(=O)[O-])nc2ccccc2[n+]1[O-].[Na+] | inactive | inactive | Active |
| 1000 |  | 100 |  | Cc1c(C(=O)N[C@@H]2C(=O)N3[C@@H]2SC(C)(C)[C@@H]3C(=O)[O-])[n+]([O-])c2ccccc2[n+]1[O-].[Na+] | inactive | inactive |  |
|  | 10 |  | > 1000 | CC1(C)S[C@@H]2[C@H](NC(=O)CCCc3c(-c4ccccc4)[n+]([O-])c4ccccc4[n+]3[O-])C(=O)N2[C@H]1C(=O)[O-].[Na+] | inactive | inactive |  |
|  | 10 |  | 1000 | CCOC(=O)c1c(CCC(=O)N[C@@H]2C(=O)N3[C@@H]2SC(C)(C)[C@@H]3C(=O)[O-])[n+]([O-])c2ccccc2[n+]1[O-].[Na+] | inactive | inactive |  |
